Source: the NIST ThermoML archive (doi:10.1021/je7002786)
Numbers after ± are expanded uncertainties.

What was measured:
[1] = DTA
[2] = molar heat capacity at constant pressure; conditions: 101.33 kPa, Liquid

CCCCn1cc[n+](C)c1.COS(=O)(=O)[O-] [1-butyl-3-methylimidazolium methyl sulfate]
Normal melting temperature ([1]; Crystal): -4.10 ± 1 °C
Glass transition temperature [1]: -91.90 ± 3 °C
molar heat capacity at constant pressure ([2]; 283.1 K): 226.29 ± 91 J/K/mol
molar heat capacity at constant pressure ([2]; 293.15 K): 246.56 ± 99 J/K/mol
molar heat capacity at constant pressure ([2]; 303.15 K): 266.84 ± 110 J/K/mol
molar heat capacity at constant pressure ([2]; 313.15 K): 287.11 ± 120 J/K/mol
molar heat capacity at constant pressure ([2]; 323.15 K): 307.39 ± 120 J/K/mol
molar heat capacity at constant pressure ([2]; 333.15 K): 327.66 ± 130 J/K/mol
molar heat capacity at constant pressure ([2]; 343.15 K): 347.94 ± 140 J/K/mol
molar heat capacity at constant pressure ([2]; 353.15 K): 368.22 ± 150 J/K/mol
molar heat capacity at constant pressure ([2]; 363.15 K): 388.49 ± 160 J/K/mol
molar heat capacity at constant pressure ([2]; 373.1 K): 408.77 ± 160 J/K/mol

CCOS(=O)(=O)[O-].CCn1cc[n+](C)c1 [1-ethyl-3-methylimidazolium ethyl sulfate]
Glass transition temperature [1]: -78.40 ± 3 °C
molar heat capacity at constant pressure ([2]; 283.1 K, Small sample (50 mg) DSC): 387.04 ± 160 J/K/mol
molar heat capacity at constant pressure ([2]; 293.15 K, Small sample (50 mg) DSC): 409.73 ± 160 J/K/mol
molar heat capacity at constant pressure ([2]; 303.15 K, Small sample (50 mg) DSC): 432.41 ± 170 J/K/mol
molar heat capacity at constant pressure ([2]; 313.15 K, Small sample (50 mg) DSC): 455.09 ± 180 J/K/mol
molar heat capacity at constant pressure ([2]; 323.15 K, Small sample (50 mg) DSC): 477.78 ± 190 J/K/mol
molar heat capacity at constant pressure ([2]; 333.15 K, Small sample (50 mg) DSC): 500.46 ± 200 J/K/mol
molar heat capacity at constant pressure ([2]; 343.15 K, Small sample (50 mg) DSC): 523.15 ± 210 J/K/mol
molar heat capacity at constant pressure ([2]; 353.15 K, Small sample (50 mg) DSC): 545.83 ± 220 J/K/mol
molar heat capacity at constant pressure ([2]; 363.15 K, Small sample (50 mg) DSC): 568.51 ± 230 J/K/mol
molar heat capacity at constant pressure ([2]; 373.1 K, Small sample (50 mg) DSC): 591.2 ± 240 J/K/mol
